According to patent US5545640A, “Protease inhibiting succinic acid derivatives” (Bio-Mega/Boehringer Ingeleheim Research Inc., priority 1995, dated 1996):
Like-named read-outs stand apart in the source and are kept apart here.

Tests used:
[1] = biological target: T1, HIV protease (Human immunodeficiency virus type 1 group M subtype B, UniProt P04585); test: biochemical; details: read-out: IC50 (concentration causing 50% inhibition of HIV protease)
T1 construct: an HIV-encoded enzyme known as HIV protease
Excerpt: The procedure is based on the capacity of the test compound to inhibit enzymatic cleavage by HIV protease of a decapeptide (the substrate) having an amino acid sequence which includes a known HIV protease cleavage site of a HIV polyprotein; see H. G. Krausslich et al., Proc. Natl. Acad. Sci. USA, 86, 807 (1989).
Anderson, S. Rakhit and C. Yoakim in the European patent application 443 560, published Aug. 28, 1991.

[2] = tested on: HIV (H9/HTLV-IIIB stock) in C8166 cells; test: Cell culture assay: inhibition of syncytia formation in HIV-infected C8166 cells (antiviral, anti-HIV effect); format: cell-based, HIV (HTLV-IIIB); human T4 cell line; details: Human immunodeficiency virus 1; C8166 cells; H9/HTLV-IIIB, 50 times TCID50; 72 h, 37°; read-out: EC50 (concentration causing 50% inhibition of syncytia formation)
Excerpt: Typical of such procedures are those described by S. Harada and N. Yamamoto, Jpn. J. Cancer Res. (Gann), 76, 432 (1985), and S. Harada et al., Science, 229, 563 (1985). An assay based on the latter procedures is described in the examples hereinafter.
In addition, Tables 1 to 8 list the results for exemplified compounds of formula 1 when assayed for antiviral (anti-HIV) effects according to the following protocol which is based on a cell culture assay previously described by Harada et al., supra. Transformed cells are used because of the rapidity with which HIV will replicate in the cells.
1. The test compound is dissolved in dimethylsulfoxide to a concentration of 5 mg/mL. The resultant solution .can be stored at 4° until use.
2. The resultant solution is diluted in RPMI 1640 (Gibco Laboratories, St. Lawrence, Mass., USA) to four times (4×) the final concentration which is to be tested. Once diluted in RPMI 1640, the solution is used in the cell culture assay within 4 h.
3. The latter solution (50 μL) is added to triplicate wells of a 96 well flat bottomed microtiter plate. RPMI (50 μL) also is added to control wells.
4. C8166 cells (5×10^4) in 50 μL of HEPES-buffered RPMI 1640 (pH=7.2), 10% heat inactivated fetal calf serum (FCS), […] gentamicin (complete media) are added to all wells.
5. Fifty times TCID50 of H9/HTLV-IIIB stock (stored in liquid nitrogen as cell culture supernatant in 50% FCS) in 100 μL of complete media is added to all wells. The infectious titer of the virus stocks is as previously determined by end point dilution on C8166 cells. The titer of stocks are stable for 6-12 months when stored at -193°.
6. Microtiter plates are then placed on level shelves of a 37°, 5% CO2 humidified incubator for 72 h.
7. Plates are then removed and centers of syncytia are counted in each well by low power phase contrast light microscopy. […] Control wells should have between 25 and 75 centers of syncytia per well.
8. Percent inhibition of syncytia formation is calculated by the formula: [formula]
The concentration of the test compound which causes a 50% inhibition of syncytia formation, i.e. the EC50, is determined by using the technique of serial dilution of the working solution at step 3 and graphically plotting the observed percent inhibition of syncytia formation against the various concentrations of the test compound.
In the following tables, assay results are listed for the exemplified compounds from the aforementioned recombinant HIV protease HPLC assay under the heading IC50 (nM) and from the cell culture assay under the heading EC50 (nM). Note that for some of the compounds listed in tables, the EC50 's have not been determined (ND).

[3] = recombinant HIV protease, decapeptide substrate, HPLC assay

| IC50 [1, 3] [nM] | EC50 [2] [nM] | IC50 [1] [nM] | Compound |
| --- | --- | --- | --- |
| 3 | 170 | – | CCC(CC)NC(=O)C[C@@H](C(=O)NC[C@@H](O)[C@H](Cc1ccccc1)NC(=O)[C@@H](NC(=O)COc1ccccc1)[C@@H](C)O)C(C)(C)C [Entry 41] |
| 2 | 370 | – | Cc1ccc(C)c(C(=O)N[C@@H](Cc2ccccc2)[C@H](O)CNC(=O)[C@H](CC(=O)Nc2c(C)cccc2C)C(C)(C)C)c1 [Entry 74] |
| 4 | 150 | – | CC(C)C(NC(=O)C[C@@H](C(=O)NC[C@@H](O)[C@H](Cc1ccccc1)NC(=O)[C@H](CC(N)=O)NC(=O)c1ccc2ccccc2n1)C(C)(C)C)C(C)C [Entry 45] |
| 6 | 360 | – | CCC(CC)NC(=O)C[C@@H](C(=O)NC[C@@H](O)[C@H](Cc1ccccc1)NC(=O)c1c(Cl)ccc(Cl)c1Cl)C(C)(C)C [Entry 67] |
| 3 | 34 | – | CCC(CC)NC(=O)C[C@@H](C(=O)NC[C@@H](O)[C@H](Cc1ccccc1)NC(=O)[C@H](CC#N)NC(=O)c1ccc2ccccc2n1)C(C)(C)C [Entry 37] |
| 2.6 | 620 | – | Cc1cccc(C)c1NC(=O)C[C@@H](C(=O)NC[C@@H](O)[C@H](Cc1ccccc1)NC(=O)COc1c(C)cccc1C)C(C)(C)C [Entry 73] |
| 6 | 90 | – | CCC(CC)NC(=O)CC(C(=O)NC[C@@H](O)[C@H](Cc1ccccc1)NC(=O)[C@@H](NC(=O)OCc1ccccc1)C(C)(C)C)C(C)(C)C (stereo partly shown) [Entry 53] |
| 8.9 | 640 | – | CCC(CC)NC(=O)C[C@@H](C(=O)NC[C@@H](O)[C@H](Cc1ccccc1)NC(=O)c1cc2ccccc2n1C)C(C)(C)C [Entry 64] |

More lines, now with the values behind:

| Compound | IC50 [1, 3] [nM] | EC50 [2] [nM] | IC50 [1] [nM] |
| --- | --- | --- | --- |
| CCC(CC)NC(=O)C[C@@H](C(=O)NC[C@@H](O)[C@H](Cc1ccccc1)NC(=O)[C@H](CC(N)=O)NC(=O)CCc1ccccc1)C(C)(C)C [Entry 9] | 15 | 1900 | – |
| CCC(CC)NC(=O)C[C@@H](C(=O)NC[C@@H](O)[C@H](Cc1ccccc1)NC(=O)[C@H](CC(N)=O)NC(=O)OCc1ccccc1)C(C)(C)C [Entry 20] | 5 | 480 | – |
| CCC(CC)NC(=O)C[C@@H](C(=O)NC[C@@H](O)[C@H](Cc1ccccc1)NC(=O)[C@@H](NC(=O)c1ccc2ccccc2n1)C(C)C)C(C)(C)C [Entry 29] | – | 52 | 3 |
| CCC(CC)NC(=O)C[C@@H](C(=O)NC[C@@H](O)[C@H](Cc1ccccc1)NC(=O)[C@H](CC(N)=O)NC(=O)c1cc2ccccc2cn1)C(C)(C)C [Entry 18] | 5 | 220 | – |
| CCC(CC)NC(=O)C[C@@H](C(=O)NC[C@@H](O)[C@H](Cc1ccccc1)NC(=O)[C@@H](NC(=O)c1cnc2ccccc2n1)C(C)C)C(C)(C)C [Entry 31] | – | 25 | 3 |
| CCC(CC)NC(=O)C[C@@H](C(=O)NC[C@@H](O)[C@H](Cc1ccccc1)NC(=O)[C@H](CC(N)=O)NC(=O)c1cnc2ccccc2n1)C(C)(C)C [Entry 36] | 3 | 260 | – |
